Measured values reported in publication PMC7736581, “Activation of the IRE1 RNase through remodeling of the kinase front pocket by ATP-competitive ligands” (Nature Communications, 2020).

Columns and labels:
Experiment in all cases: biochemical
Parameters in all cases: Invitrogen kinase panel: Z'Lyte activity (ATP at Km) or LanthaScreen competitive ATP-site binding, percent inhibition
GRK2 = GRK2 (Homo sapiens, UniProt P25098)
IRE2 = biological target: T1, IRE2 (Homo sapiens, UniProt Q76MJ5)
T1 construct: gene ERN2

HIPK4 = HIPK4 (Homo sapiens, UniProt Q8NE63)
TrkB = biological target: T2, TrkB (Homo sapiens, UniProt Q16620)
T2 construct: gene NTRK2

PKG1_alpha = biological target: T3, PKG1_alpha (Homo sapiens, UniProt Q13976)
T3 construct: gene PRKG1; isoform alpha

Ron = biological target: T4, Ron (Homo sapiens, UniProt Q04912)
T4 construct: gene MST1R
T4 sequence (Q04912 whole entry): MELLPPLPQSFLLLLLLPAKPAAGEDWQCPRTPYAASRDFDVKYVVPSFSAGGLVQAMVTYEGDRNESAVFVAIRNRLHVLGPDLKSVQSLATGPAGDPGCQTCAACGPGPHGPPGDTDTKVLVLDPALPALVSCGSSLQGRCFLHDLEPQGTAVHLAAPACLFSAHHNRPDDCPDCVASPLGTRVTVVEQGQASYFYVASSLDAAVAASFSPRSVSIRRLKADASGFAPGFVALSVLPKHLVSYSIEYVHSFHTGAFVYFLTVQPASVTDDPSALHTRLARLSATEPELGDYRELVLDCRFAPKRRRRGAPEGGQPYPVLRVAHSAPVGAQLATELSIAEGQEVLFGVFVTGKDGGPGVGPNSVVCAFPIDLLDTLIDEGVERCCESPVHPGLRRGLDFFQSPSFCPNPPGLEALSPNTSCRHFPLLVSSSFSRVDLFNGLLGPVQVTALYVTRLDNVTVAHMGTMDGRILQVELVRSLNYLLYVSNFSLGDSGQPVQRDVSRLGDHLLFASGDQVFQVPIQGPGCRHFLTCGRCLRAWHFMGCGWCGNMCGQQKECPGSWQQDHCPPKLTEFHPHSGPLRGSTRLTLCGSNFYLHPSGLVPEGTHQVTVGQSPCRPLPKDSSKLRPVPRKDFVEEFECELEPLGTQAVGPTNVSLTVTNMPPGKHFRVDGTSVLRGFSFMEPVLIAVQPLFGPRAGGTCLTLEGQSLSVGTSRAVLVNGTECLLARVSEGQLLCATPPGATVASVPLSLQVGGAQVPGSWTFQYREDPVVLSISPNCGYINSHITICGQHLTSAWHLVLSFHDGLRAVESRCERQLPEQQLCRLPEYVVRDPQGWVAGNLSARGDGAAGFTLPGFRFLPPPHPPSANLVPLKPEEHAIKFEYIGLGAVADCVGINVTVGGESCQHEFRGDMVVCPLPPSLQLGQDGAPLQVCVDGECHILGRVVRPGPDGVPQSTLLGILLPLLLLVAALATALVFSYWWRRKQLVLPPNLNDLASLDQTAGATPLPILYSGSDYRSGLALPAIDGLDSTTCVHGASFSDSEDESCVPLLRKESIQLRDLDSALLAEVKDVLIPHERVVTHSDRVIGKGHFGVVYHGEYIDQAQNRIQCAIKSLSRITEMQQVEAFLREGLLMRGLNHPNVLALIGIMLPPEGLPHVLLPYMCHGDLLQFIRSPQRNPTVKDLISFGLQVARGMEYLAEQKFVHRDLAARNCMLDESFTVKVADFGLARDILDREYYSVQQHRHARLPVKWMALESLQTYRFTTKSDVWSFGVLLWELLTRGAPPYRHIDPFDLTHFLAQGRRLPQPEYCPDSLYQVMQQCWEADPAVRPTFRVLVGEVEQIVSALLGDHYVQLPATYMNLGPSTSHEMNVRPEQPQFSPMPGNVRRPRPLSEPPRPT

HIPK1 = HIPK1 (Homo sapiens, UniProt Q86Z02)
Sequence of HIPK1 (Q86Z02 whole entry): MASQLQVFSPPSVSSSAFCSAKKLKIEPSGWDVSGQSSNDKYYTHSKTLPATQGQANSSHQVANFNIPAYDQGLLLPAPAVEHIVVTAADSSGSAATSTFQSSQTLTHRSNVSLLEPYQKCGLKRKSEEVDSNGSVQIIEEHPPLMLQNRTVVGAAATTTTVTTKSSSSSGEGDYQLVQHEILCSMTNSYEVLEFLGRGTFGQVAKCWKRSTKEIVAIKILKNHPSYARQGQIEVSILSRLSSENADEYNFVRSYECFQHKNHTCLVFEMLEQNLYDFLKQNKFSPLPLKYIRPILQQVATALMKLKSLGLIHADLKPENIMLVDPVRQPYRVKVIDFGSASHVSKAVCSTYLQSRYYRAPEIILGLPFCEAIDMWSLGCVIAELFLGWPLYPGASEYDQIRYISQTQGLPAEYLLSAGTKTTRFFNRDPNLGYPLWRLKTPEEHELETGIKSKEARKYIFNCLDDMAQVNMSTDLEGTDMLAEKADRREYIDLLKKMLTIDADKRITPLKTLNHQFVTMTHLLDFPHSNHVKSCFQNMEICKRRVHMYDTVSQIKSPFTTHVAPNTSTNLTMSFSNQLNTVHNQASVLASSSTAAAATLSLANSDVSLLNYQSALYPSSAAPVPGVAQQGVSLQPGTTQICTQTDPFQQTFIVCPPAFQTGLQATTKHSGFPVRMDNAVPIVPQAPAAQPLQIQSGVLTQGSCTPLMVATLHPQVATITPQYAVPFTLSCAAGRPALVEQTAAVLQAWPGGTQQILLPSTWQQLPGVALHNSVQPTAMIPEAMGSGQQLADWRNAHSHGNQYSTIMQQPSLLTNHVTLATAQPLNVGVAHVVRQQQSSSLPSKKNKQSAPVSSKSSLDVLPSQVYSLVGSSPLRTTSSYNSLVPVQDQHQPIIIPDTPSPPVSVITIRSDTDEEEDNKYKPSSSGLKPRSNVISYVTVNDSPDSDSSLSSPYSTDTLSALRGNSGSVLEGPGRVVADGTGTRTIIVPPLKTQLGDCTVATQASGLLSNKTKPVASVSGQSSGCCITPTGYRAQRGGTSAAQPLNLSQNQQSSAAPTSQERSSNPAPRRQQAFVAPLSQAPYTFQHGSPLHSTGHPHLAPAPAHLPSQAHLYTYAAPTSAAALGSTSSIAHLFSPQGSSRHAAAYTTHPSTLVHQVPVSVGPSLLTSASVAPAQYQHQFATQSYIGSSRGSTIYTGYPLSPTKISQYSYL

CamKIV = biological target: T5, CamKIV (Homo sapiens, UniProt Q16566)
T5 construct: gene CAMK4

TSSK1 = biological target: T6, TSSK1 (Homo sapiens, UniProt Q9BXA7)
T6 construct: gene TSSK1B

InsR = InsR (Homo sapiens, UniProt P06213)
p38_beta = biological target: T7, p38_beta (Homo sapiens, UniProt Q15759)
T7 construct: gene MAPK11

ZAP-70 = biological target: T8, ZAP-70 (Homo sapiens, UniProt P43403)
T8 construct: gene ZAP70

Ret = Ret (Homo sapiens, UniProt P07949)
Sequence of Ret (P07949 whole entry): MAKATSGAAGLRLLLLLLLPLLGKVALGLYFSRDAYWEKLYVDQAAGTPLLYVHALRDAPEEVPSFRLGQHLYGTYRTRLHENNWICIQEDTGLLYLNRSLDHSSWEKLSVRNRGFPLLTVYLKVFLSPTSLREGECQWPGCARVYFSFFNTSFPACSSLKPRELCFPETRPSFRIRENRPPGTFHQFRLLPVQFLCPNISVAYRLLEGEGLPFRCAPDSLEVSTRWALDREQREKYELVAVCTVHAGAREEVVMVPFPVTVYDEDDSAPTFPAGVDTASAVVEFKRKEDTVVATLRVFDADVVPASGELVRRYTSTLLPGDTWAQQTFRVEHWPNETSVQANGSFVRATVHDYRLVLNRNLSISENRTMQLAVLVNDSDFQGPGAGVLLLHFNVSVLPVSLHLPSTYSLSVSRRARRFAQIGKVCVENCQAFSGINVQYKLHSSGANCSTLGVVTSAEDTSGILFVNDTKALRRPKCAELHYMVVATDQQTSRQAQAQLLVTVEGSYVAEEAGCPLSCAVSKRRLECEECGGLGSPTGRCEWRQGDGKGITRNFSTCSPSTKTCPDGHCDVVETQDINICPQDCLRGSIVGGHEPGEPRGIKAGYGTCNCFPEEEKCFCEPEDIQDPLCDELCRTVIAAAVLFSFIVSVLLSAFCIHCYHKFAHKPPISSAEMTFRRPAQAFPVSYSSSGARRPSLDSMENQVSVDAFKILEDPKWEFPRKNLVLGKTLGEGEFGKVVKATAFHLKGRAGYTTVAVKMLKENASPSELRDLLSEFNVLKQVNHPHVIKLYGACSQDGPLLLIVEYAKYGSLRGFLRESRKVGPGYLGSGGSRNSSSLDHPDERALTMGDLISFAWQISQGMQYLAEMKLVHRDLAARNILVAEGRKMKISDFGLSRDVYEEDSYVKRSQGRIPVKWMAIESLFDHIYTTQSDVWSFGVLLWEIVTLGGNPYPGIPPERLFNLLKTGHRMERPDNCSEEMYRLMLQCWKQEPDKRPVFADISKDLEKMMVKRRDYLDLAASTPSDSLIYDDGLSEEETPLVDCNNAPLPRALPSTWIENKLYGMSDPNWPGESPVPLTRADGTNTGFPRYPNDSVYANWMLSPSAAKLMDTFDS

CLK4 = CLK4 (Homo sapiens, UniProt Q9HAZ1)
Sequence of CLK4 (Q9HAZ1 whole entry): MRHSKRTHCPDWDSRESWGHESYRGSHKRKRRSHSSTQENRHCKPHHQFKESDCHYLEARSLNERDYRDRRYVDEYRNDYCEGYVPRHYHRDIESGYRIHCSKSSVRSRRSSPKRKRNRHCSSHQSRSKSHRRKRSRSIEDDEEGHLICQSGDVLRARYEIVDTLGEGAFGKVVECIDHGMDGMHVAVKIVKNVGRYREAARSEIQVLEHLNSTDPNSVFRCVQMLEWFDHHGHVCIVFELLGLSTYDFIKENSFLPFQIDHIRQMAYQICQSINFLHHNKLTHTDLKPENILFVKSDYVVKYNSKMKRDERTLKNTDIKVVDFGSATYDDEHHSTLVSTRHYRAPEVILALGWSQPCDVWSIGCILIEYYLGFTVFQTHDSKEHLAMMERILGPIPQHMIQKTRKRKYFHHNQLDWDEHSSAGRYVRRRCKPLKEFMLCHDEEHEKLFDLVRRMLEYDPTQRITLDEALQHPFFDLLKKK

ErbB4 = ErbB4 (Homo sapiens, UniProt Q15303)
DCAMKL2 = biological target: T9, DCAMKL2 (Homo sapiens, UniProt Q8N568)
T9 construct: gene DCLK2

MAPKAPK2 = MAPKAPK2 (Homo sapiens, UniProt P49137)
Sequence of MAPKAPK2 (P49137 whole entry): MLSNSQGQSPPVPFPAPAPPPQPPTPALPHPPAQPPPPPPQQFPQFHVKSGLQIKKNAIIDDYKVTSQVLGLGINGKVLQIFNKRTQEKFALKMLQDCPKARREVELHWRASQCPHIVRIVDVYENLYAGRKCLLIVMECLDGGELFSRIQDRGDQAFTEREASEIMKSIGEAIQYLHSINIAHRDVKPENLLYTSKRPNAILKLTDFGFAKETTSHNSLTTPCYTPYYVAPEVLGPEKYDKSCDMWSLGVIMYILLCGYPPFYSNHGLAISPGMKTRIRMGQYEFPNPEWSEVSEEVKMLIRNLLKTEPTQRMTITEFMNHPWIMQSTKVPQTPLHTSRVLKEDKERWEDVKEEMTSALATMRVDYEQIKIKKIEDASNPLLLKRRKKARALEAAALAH

ERN1 = ERN1 (Homo sapiens, UniProt O75460)
ACVR2B = ACVR2B (Homo sapiens, UniProt Q13705)
NEK9 = NEK9 (Homo sapiens, UniProt Q8TD19)
CaMKI_delta = biological target: T10, CaMKI_delta (Homo sapiens, UniProt Q8IU85)
T10 construct: gene CAMK1D
T10 sequence (Q8IU85 whole entry): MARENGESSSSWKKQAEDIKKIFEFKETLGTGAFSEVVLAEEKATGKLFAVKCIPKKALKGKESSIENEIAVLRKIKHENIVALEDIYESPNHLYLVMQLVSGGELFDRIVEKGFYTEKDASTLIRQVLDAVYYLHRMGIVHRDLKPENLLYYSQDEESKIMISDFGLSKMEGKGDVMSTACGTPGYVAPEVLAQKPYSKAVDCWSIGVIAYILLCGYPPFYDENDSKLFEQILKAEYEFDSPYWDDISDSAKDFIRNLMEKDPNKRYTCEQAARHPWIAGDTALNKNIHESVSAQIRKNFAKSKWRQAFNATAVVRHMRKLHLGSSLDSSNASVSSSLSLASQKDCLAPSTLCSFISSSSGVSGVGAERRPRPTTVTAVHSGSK

PrKX = PrKX (Homo sapiens, UniProt P51817)
CLK3 = CLK3 (Homo sapiens, UniProt P49761)
EphA8 = EphA8 (Homo sapiens, UniProt P29322)
FGFR4 = FGFR4 (Homo sapiens, UniProt P22455)

Row | Structure (SMILES) | inhibition at 1 µM (GRK2) | inhibition at 1 µM (IRE2) | inhibition at 1 µM (HIPK4) | inhibition at 1 µM (TrkB) | inhibition at 1 µM (PKG1_alpha) | inhibition at 1 µM (Ron) | inhibition at 1 µM (HIPK1) | inhibition at 1 µM (CamKIV) | inhibition at 1 µM (TSSK1) | inhibition at 1 µM (InsR) | inhibition at 1 µM (p38_beta) | inhibition at 1 µM (ZAP-70) | inhibition at 1 µM (Ret) | inhibition at 1 µM (CLK4) | inhibition at 1 µM (ErbB4) | inhibition at 1 µM (DCAMKL2) | inhibition at 1 µM (MAPKAPK2) | inhibition at 1 µM (ERN1) | inhibition at 1 µM (ACVR2B) | inhibition at 1 µM (NEK9) | further results
1 | CCOC(=O)Nc1cccc2c(Oc3ncccc3-c3ccnc(N[C@H]4CCCNC4)n3)c(C)ccc12 [G-1749] | 2% | 9.5% | 3.8% | 0.5% | 1% | -6% | 1% | -1.5% | 8.5% | 2.5% | 100% | 3% | 10% | 10.5% | 4.5% | 3% | 7.5% | 99.5% | 18.5% | -3% | inhibition at 1 µM (CaMKI_delta): 0%; inhibition at 1 µM (PrKX): -0.5%; inhibition at 1 µM (CLK3): 7%; inhibition at 1 µM (EphA8): 1.5%; inhibition at 1 µM (FGFR4): 7.5%
2 | CC#CC(=O)Nc1cccc2c(Oc3ncccc3-c3ccnc(N[C@H]4CCCNC4)n3)c(C)ccc12 [G-7658] | 1% | 5.5% | 8% | 0.5% | 3.5% | 4% | 0.5% | -2.5% | 7.5% | 3% | 63.5% | 4% | 8% | 6% | 11.5% | 2% | 1% | 106% | 8.5% | -0.5% | inhibition at 1 µM (CaMKI_delta): 0.5%; inhibition at 1 µM (PrKX): -1.5%; inhibition at 1 µM (CLK3): 11.5%; inhibition at 1 µM (EphA8): 6.5%; inhibition at 1 µM (FGFR4): 9%
